What was measured:
[1] = tested on: E. coli CSH36 (constitutive mutant for lacZ); experiment: Bacterial growth with ONPG; assay type: cell-based; conditions: CSH36, no IPTG, 0.3 mg/ml ONPG
Protocol: (§1) E. coli strains CSH36 and W3110 available from the ATCC, Manassas, Va. were tested with orthonitrophenyl β-D-galactopyranoside (ONPG), according to the procedure of Marsh, 1994, to confirm release of compound upon induction of β-galactosidase production. W3110 is a wild-type E. coli strain inducible for lacZ expression; CSH36 is a constitutive mutant for lacZ and therefore produces β-galactosidase regardless of induction conditions. Each strain was innoculated into 10 mL M9 minimal media and grown in non-inducing conditions, shaking at 37° C. overnight. W3110 was also innoculated into 10 mL M9 media containing 0.3 mM iso-propyl thiogalactoside (IPTG) (W3110i) to induce β-galactosidase production. Overnight cultures (500 μL) were transferred into 10 mL fresh M9 media (+/−IPTG) and grown to logarithmic phase for 4 hours prior to beginning the experiments. 1 mL of this culture was transferred to 10 ml fresh M9 media (+/−IPTG) containing 0.3 mg/ml ONPG or no additions, and returned to the incubator. Growth curves were generated by removing aliquots of each culture at 30 minute intervals and reading absorbance at 420 nm. All final data was run in duplicate trials (A and B). […] ONP is also toxic to the bacteria, and therefore growth was retarded in those cultures producing β-galactosidase and turning over ONPG to ONP (see below and FIG. 2).

[2] = tested on: E. coli W3110 (inducible for lacZ); experiment: Bacterial growth with ONPG with or without IPTG induction; assay type: cell-based; conditions: 0.3 mg/ml ONPG
Protocol: as §1

[3] = tested on: E. coli CSH36/S90C and CSH22/S90C co-culture; experiment: Co-culture selection, colony growth on X-gal plates; assay type: cell-based; conditions: 30 μg/ml chloramphenicol or 42 μg/ml M0165, plated on X-gal
Protocol: E. coli strains CSH36/S90C and CSH22/S90C were grown in co-culture and tested with the chloramphenicol galactoside pro-drug (M0165) described in Example 15, to show lack of translocation of drug released in β-galactosidase expressing cells to other cells in the culture, and therefore selection for the lacZ-cells. CSH36 is a constitutive mutant for lacZ and therefore produces β-galactosidase regardless of induction conditions. CSH22 is a deletion mutant for lacZ and is therefore uninducible. Each strain individually and both strains together were innoculated into 10 mL aliquots of M9 minimal media and grown shaking at 37° C. overnight. Overnight cultures (500 μL) were transferred into 10 mL fresh M9 media and grown to logarithmic phase for 4 hours prior to beginning the experiments. 1 mL of this culture was transferred to 10 ml fresh M9 media containing 30 μg/ml chloramphenicol, 42 μg/ml M0165, or no additions, and returned to the incubator. Growth curves were generated by removing aliquots of each culture at 30 minute intervals and reading absorbance at 420 nm. Remaining portions of the cultures were allowed to grow overnight, and final absorbance readings were taken. […] Plates were incubated at 37° C. for 48 hours, then evaluated for growth of white (indicating lacZ −, CSH22 cells) and blue (indicating lacZ +, CSH 36 cells) colonies.

[4] = tested on: E. coli CSH36/S90C and CSH22/S90C co-culture; experiment: Co-culture bystander effect, colony growth on X-gal plates; assay type: cell-based; conditions: 10 μg/ml 5FUR or 16.2 μg/ml M0174, plated on X-gal
Protocol: E. coli strains CSH36/S90C and CSH22/S90C were grown in co-culture and tested with the 5FUR-galactoside conjugate described in Example 16, 5-fluorouridine-5′-O-β-D-galactopyranoside, (M0174) to show translocation of drug released in β-Gal expressing cells to other cells in the culture. CSH36 is a constitutive mutant for lacZ and therefore produces β-galactosidase regardless of induction conditions. CSH22 is a deletion mutant for lacZ and is therefore uninducible. Each strain individually and both strains together were innoculated into 10 mL aliquots of M9 minimal media and grown shaking at 37° C. overnight. Overnight cultures (500 μL) were transferred into 10 mL fresh M9 media and grown to logarithmic phase for 4 hours prior to beginning the experiments. 1 mL of this culture was transferred to 10 ml fresh M9 media containing 10 μg/ml 5-fluorouridine (5FUR), 16.2 μg/ml M0174, or no additions, and returned to the incubator. Growth curves were generated by removing aliquots of each culture at 30 minute intervals and reading absorbance at 420 nm. Remaining portions of these cultures were allowed to grow overnight, and final absorbance readings were taken. […] Plates were incubated at 37° C. for 48 hours, then evaluated for growth of white (indicating lacZ −, CSH22 cells) and blue (indicating lacZ+, CSH36 cells) colonies.

[5] = tested on: E. coli strains CSH23/S90C and CSH22/S90C; experiment: Bacterial growth assay under non-inducing conditions (loss of activity upon conjugation); assay type: cell-based; conditions: 10 μg/ml 5FUR or 16.2 μg/ml M0174, M9 media, FIG. 1
Protocol: E. coli strains CSH23/S90C and CSH22/S90C were tested with 5-fluorouridine (5FUR) and the 5FUR-galactoside conjugate described in Example 16, 5-fluorouridine-5′-O-β-D-galactopyranoside, (M0174) to confirm loss of biological activity upon conjugation. CSH23 is a strain inducible for lacZ expression; CSH22 is a deletion mutant for lacZ and is therefore uninducible. Other strains with these properties are commercially available. When grown under non-inducing conditions, neither strain will produce β-galactosidase. Each strain was innoculated into 10 mL M9 minimal media and grown in non-inducing conditions, shaking at 37° C. overnight. Overnight cultures (500 μL) were transferred into […] fresh M9 media and grown to logarithmic phase for 4 hours prior to beginning the experiments. 1 mL of this culture was transferred to 10 ml fresh M9 media containing 10 μg/ml 5FUR, 16.2 μg/ml M0174, or no additions, and returned to the incubator. Growth curves were generated by removing aliquots of each culture at 30 minute intervals and reading absorbance at 420 nm. All final data was run in duplicate trials.

D5 murine melanoma cells = experiment: MTT cell proliferation assay, non-lipofected tumor cells; assay type: cell-based
Protocol: (§2) For the MTT assay, cells are incubated with the MTT reagent, which is turned over by live cells to a purple MTT formazan product. Turnover is directly proportional to the number of live cells, enabling a proportional measurement of the number of cells to be achieved by measuring the production of MTT formazan. Media is removed from cells in the twelve well plate and replaced with DME containing 10 mM Hepes. 0.25 mL of a 2 mg/ml solution of MTT is then added to each well, and plates are covered and wrapped with aluminum foil and incubated at 37° C. for three hours. Plates are then emptied of the media MTT solution, and 1 mL of DMSO and 125 μL of Sorensens glycine buffer are added to each well to solubilize the MTT formazan product. Absorbence of each sample is measured against a DMSO blank at 570 nm.
(§3) Lipofection of D5 murine melanoma cells with the pCMVβ plasmid containing the lacZ gene provided a lacZ positive set of cells with transient but high levels of ? -galactosidase expression. A 60 mm plate of D5 cells, 80% confluent, was lipofected for 5 hours with 3.6 μg/ml pCMVB (a plasmid containing the lacZ gene)(CLONTECH) using 36 μL lipofectAmine reagent (Life Technologies, Gibco BRL). After lipofection, fresh media was added to the cells to dilute the lipofection reagent, and cells were grown for 2 days. A cover slip of the lipofected D5 cells was stained with X-gal and transfection efficiency was estimated at 70%. D5 and lipofected D5 cells were plated in 12 well plates at a density of 12×10^3 cells per well and incubated 6 hours. The 5FUR-galactoside conjugate described in Example 16, 5-fluorouridine-5′-O-β-D-galactopyranoside (M0174) was added to cells at various concentrations and cells were incubated 6 hours, after which the media was changed. Cells were allowed to grow another 36 hours, then the MTT assay was performed to estimate the number of living cells per well. Cell numbers were expressed as a percent of the number of cells in the control well. All assay points were performed in duplicate and averaged. […]

[6] = tested on: D5 mouse melanoma tumors (untreated cells); experiment: In vivo growth of subcutaneous tumors from non-lipofected cells; set-up: species or system C57/J(B6) mice; conditions: 100 mg/Kg/Day intraperitoneally for 4 days from Day 3
Protocol: (§4) The 5FUR-galactoside conjugate described in Example 16, 5-fluorouridine-5′-O-β-D-galactopyranoside (M0174) was tested to determine the reduction of tumor growth of subcutaneously implanted D5 mouse melanoma tumors that had been lipofected with a vector containing the lacZ marker gene in mice. […] C57/J(B6) mice (22-36 g each) were injected in the right flank with 50 μL HBBS containing 1×10^6D5 tumor cell that were either untreated or lipofected with a vector containing the lacZ gene. M0174 was administered intraperitoneally starting at Day 3, for 4 days, to mice that had received lipofected tumor cells in doses of either 25 or 50 mg/kg/day, and to mice that had received untreated tumor cells in doses of 100 mg/kg/day. Measurement of tumor area in mm^2 began on Day 8 and ended on Day 26. […] NO EFFECT (i.e. no significant drug release) for pro-drug on non-lipofected cells was found (even at 100 mg/Kg/Day), indicating once again a lack of biological activity for the pro-drug, M0174.

[7] = tested on: D5 mouse melanoma tumors lipofected with a lacZ vector; experiment: In vivo growth of subcutaneous tumors from lacZ-lipofected cells; set-up: species or system C57/J(B6) mice; conditions: 25 and 50 mg/Kg/Day intraperitoneally for 4 days from Day 3
Protocol: as §4

[8] = tested on: D5 murine melanoma cells lipofected with pCMVβ (lacZ); experiment: MTT cell proliferation assay, lacZ-lipofected tumor cells; assay type: cell-based
Protocol: as §2, §3

[9] = tested on: D5 tumor cells lipofected with a lacZ containing vector; experiment: In vivo pulmonary tumor growth, lipofected tumor cells; set-up: species or system C57/J(B6) mice
Protocol: To test the efficacy of pro-drug delivery in vivo for initiation and mediation of a host cellular immune response to genetically modified tumor, C57/J(B6) mice (22-36 g each) are injected intravenous with 50 μL HBBS containing 1×10^6 D5 tumor cells that are either untreated, lipofected with a vector containing the lacZ gene, lipofected with a vector containing both the lacZ and the H-2K allogeneic major histocompatability complex (MHC) class I gene (Wahl, et al, 1995), or lipofected with a vector containing the H-2K gene alone. After 2 days, accumulation of the tumor cells in the lung tissue is expected. Two animals are retained as controls, and necropsy examination and tumor staining of the lipofected animals is performed at the end of the trial, to confirm pulmonary tumor growth.
The doxorubicin-galactoside pro-drug of Example 19 is administered intraperitoneally starting at Day 3, for 20 days, to mice that received lipofected tumor cells in doses of either 5, 10 or 25 mg/kg/day, and to mice that received untreated tumor cells in doses of 50 mg/kg/day. Measurement of tumor growth is determined by necropsy examination of lung tissue and staining at day 25.

O=[N+]([O-])c1ccccc1O[C@@H]1O[C@H](CO)[C@H](O)[C@H](O)[C@H]1O [ONPG, orthonitrophenyl β-D-galactopyranoside]
Doubling Time (min) [1]: *not measurable
time after start of experiments at which growth halted [1]: *growth halted approximately 2 hours after start of experiments
Doubling Time ([2]; W3110, 0.3 mM IPTG): 215 min
Doubling Time ([2]; W3110, no IPTG): 92 min

O=C(NC(COC1OC(CO)C(O)C(O)C1O)C(O)c1ccc([N+](=O)[O-])cc1)C(Cl)Cl [Example M0165, D(−)-threo-2,2-dichloro-N-[β-hydroxy-α-(O-β-D-galactopyranosylmethyl)-β-(4-nitrophenyl)ethyl]acetamide]
colony growth after overnight co-culture [3]: growth of only CSH22 cells

O=c1[nH]c(=O)n([C@@H]2O[C@H](CO)[C@@H](O)[C@H]2O)cc1F [Example 5FUR, 5-fluorouridine, reference compound]
colony growth after overnight co-culture [4]: no growth of either cell type
effect on growth (growth curves, absorbance at 420 nm) [5]: significant decrease in growth

O=c1[nH]c(=O)n([C@@H]2O[C@H](CO[C@@H]3O[C@H](CO)[C@H](O)[C@H](O)[C@H]3O)[C@@H](O)[C@H]2O)cc1F [Example M0174, 5-Fluorouridine-5′-O-β-D-Galactopyranoside]
activity at 0.3 µg/mL (D5 murine melanoma cells; Mus musculus, 0.3 ug/ml, 6 hours exposure, MTT after another 36 hours, read-out: D5 % of control growth): 110%
activity at 5 µg/mL (D5 murine melanoma cells; Mus musculus, 5 ug/ml, 6 hours exposure, MTT after another 36 hours, read-out: D5 % of control growth): 87.9%
effect on cell growth (D5 murine melanoma cells; non-lipofected cells, even at high dosage values): unaffected
tumor growth (tumor area in mm^2, Day 8 to Day 26) [6]: NO EFFECT
tumor growth (tumor area in mm^2, Day 8 to Day 26) [7]: slight delay in tumor growth
activity at 0.3 µg/mL ([8]; Mus musculus, 0.3 ug/ml, 6 hours exposure, MTT after another 36 hours, read-out: D5 lipofected, % of control growth): 48%
activity at 5 µg/mL ([8]; Mus musculus, 5 ug/ml, 6 hours exposure, MTT after another 36 hours, read-out: D5 lipofected, % of control growth): 22%
effect on cell growth ([8]; lipofected D5 cells): growth inhibited
colony growth after overnight co-culture [4]: no growth of either cell type
effect on growth (growth curves, absorbance at 420 nm) [5]: very little effect

O=C(N[C@H](CO)[C@H](O)c1ccc([N+](=O)[O-])cc1)C(Cl)Cl [chloramphenicol, reference compound]
colony growth after overnight co-culture [3]: no growth of either cell type

COc1cccc2c1C(=O)c1c(O)c3c(c(OC4OC(CO)C(O)C(O)C4O)c1C2=O)C[C@@](OC1OC(CO)C(O)C(O)C1O)(C(C)=O)C[C@@H]3OC1CC(N)C(OC2OC(CO)C(O)C(O)C2O)CO1 (some centres unmarked) [Example 19]
tumor growth in lung tissue (necropsy and staining at day 25) ([9]; 5, 10 or 25 mg/kg/day intraperitoneally for 20 days from Day 3): Tumor regression
tumor burden ([9]; animals receiving both lacZ and H-2K gene): lower tumor burden

Reference: patent US8716558B2, “Method of altering glycosylation of proteins in response to nojirimycin glucuronide in a plant cell expressing glucuronidase” (Marker Gene Technologies, Inc., priority 1999, dated 2014)
